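In this assay, cells in 96-well plates receive the compound at five concentrations for 48 hours. Endpoints are linearly interpolated between the surrounding concentrations. GI50: concentration for 50% inhibition of growth.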 Calls of active or inactive are those of the source. Cut-off read from the data, not from the text of the source: active = GI50 up to about 1.1 µM and inactive = higher.
Key:
Test in all cases: inhibition of tumour cell growth, NCI panel, 48 h
NCI/ADR-RES = system: NCI/ADR-RES
HCC 2998 = system: HCC 2998
EKVX = system: EKVX
SN12C = system: SN12C
IGROV-1 = system: IGROV-1
MOLT-4 = system: MOLT-4
SK-MEL-28 = system: SK-MEL-28
SF-295 = system: SF-295
SNB-75 = system: SNB-75
NCI-H460 = system: NCI-H460
SNB-19 = system: SNB-19
HCT-15 = system: HCT-15
786-0 = system: 786-0
ACHN = system: ACHN
A549 = system: A549
PC-3 = system: PC-3
COLO 205 = system: COLO 205
MDA-MB-435 = system: MDA-MB-435
BT-549 = system: BT-549
SW-620 = system: SW-620
SK-OV-3 = system: SK-OV-3
SK-MEL-5 = system: SK-MEL-5
OVCAR-5 = system: OVCAR-5
T47D = system: T47D
NCI-H226 = system: NCI-H226
RPMI-8226 = system: RPMI-8226
SF-268 = system: SF-268
LOX IMVI = system: LOX IMVI
CAKI-1 = system: CAKI-1
KM12 = system: KM12
HCT-116 = system: HCT-116
OVCAR-4 = system: OVCAR-4
HT-29 = system: HT-29
MCF7 = system: MCF7
SF-539 = system: SF-539
DU-145 = system: DU-145
CCRF-CEM = system: CCRF-CEM
HOP-62 = system: HOP-62
OVCAR-3 = system: OVCAR-3
UACC-62 = system: UACC-62
OVCAR-8 = system: OVCAR-8
MDA-N = system: MDA-N
Hs-578T = system: Hs-578T
UO-31 = system: UO-31
NCI-H522 = system: NCI-H522
HOP-92 = system: HOP-92
U-251 = system: U-251
K562 = system: K562
MDA-MB-231 = system: MDA-MB-231
TK-10 = system: TK-10
SK-MEL-2 = system: SK-MEL-2
NCI-H23 = system: NCI-H23
RXF 393 = system: RXF 393
UACC-257 = system: UACC-257
Malme-3M = system: Malme-3M
M14 = system: M14
A498 = system: A498

For `CCOC(=O)/C=C(/C(=O)OCC)n1cc(C)c(=O)n(Cc2cnnn2CCCCOC(C)=O)c1=O`, the GI50 (NCI/ADR-RES) was 26.7 µM (inactive), the GI50 (HCC 2998) was > 10 µM (inactive) and the GI50 (EKVX) was 21.8 µM (inactive). For the same molecule, the GI50 (SN12C) was 45.2 µM (inactive), the GI50 (IGROV-1) was 19 µM (inactive) and the GI50 (MOLT-4) was 18.2 µM (inactive). For the same molecule, the GI50 (SK-MEL-28) was 25.2 µM (inactive), the GI50 (SF-295) was > 100 µM (inactive) and the GI50 (SNB-75) was > 100 µM (inactive). For the same molecule, the GI50 (NCI-H460) was 23.3 µM (inactive), the GI50 (SNB-19) was > 100 µM (inactive) and the GI50 (HCT-15) was 12.6 µM. The GI50 (786-0) was 15.6 µM (inactive), the GI50 (ACHN) was 11.2 µM (inactive) and the GI50 (A549) was > 100 µM (inactive). The GI50 (PC-3) was 68.5 µM (inactive), the GI50 (COLO 205) was 3.54 µM (inactive) and the GI50 (MDA-MB-435) was 21.2 µM (inactive). The GI50 (BT-549) was 10.5 µM (inactive), the GI50 (SW-620) was 5.55 µM (inactive) and the GI50 (SK-OV-3) was > 100 µM (inactive). For the same molecule, the GI50 (SK-MEL-5) was 30 µM (inactive), the GI50 (OVCAR-5) was 19.6 µM (inactive) and the GI50 (T47D) was 24 µM (inactive). The GI50 (NCI-H226) was > 100 µM (inactive), the GI50 (RPMI-8226) was 17.1 µM (inactive) and the GI50 (SF-268) was 36.6 µM (inactive). The GI50 (LOX IMVI) was 18.4 µM (inactive), the GI50 (CAKI-1) was 5.79 µM (inactive) and the GI50 (KM12) was 44.2 µM (inactive). For the same molecule, the GI50 (HCT-116) was 15.1 µM (inactive), the GI50 (OVCAR-4) was 48.5 µM (inactive) and the GI50 (HT-29) was 19.2 µM (inactive). The GI50 (MCF7) was 13.6 µM (inactive), the GI50 (SF-539) was 15.1 µM (inactive) and the GI50 (DU-145) was > 100 µM (inactive). For the same molecule, the GI50 (CCRF-CEM) was 1.13 µM (inactive), the GI50 (HOP-62) was > 100 µM (inactive) and the GI50 (OVCAR-3) was 16.8 µM (inactive). The GI50 (UACC-62) was 19 µM (inactive), the GI50 (OVCAR-8) was 22.8 µM (inactive) and the GI50 (MDA-N) was 55.3 µM (inactive). For the same molecule, the GI50 (Hs-578T) was 45.5 µM (inactive), the GI50 (UO-31) was 18.4 µM (inactive) and the GI50 (NCI-H522) was 3.21 µM (inactive). The GI50 (HOP-92) was 0.0906 µM (active), the GI50 (U-251) was 32.4 µM (inactive) and the GI50 (K562) was 18.7 µM (inactive). For the same molecule, the GI50 (MDA-MB-231) was 64.6 µM (inactive), the GI50 (TK-10) was 12.6 µM (inactive) and the GI50 (SK-MEL-2) was 86.9 µM (inactive). The GI50 (NCI-H23) was 28.7 µM (inactive), the GI50 (RXF 393) was 33.3 µM (inactive) and the GI50 (UACC-257) was 26.3 µM (inactive).

In the case of `O=c1ccn(C2OC(CN(O)CCC3C(O)C(CO)OC3n3ccc(=O)[nH]c3=O)C(O)C2O)c(=O)[nH]1` (stereo unspecified), the GI50 (NCI/ADR-RES) is reported as > 100 µM (inactive), the GI50 (HCC 2998) is reported as > 100 µM (inactive) and the GI50 (EKVX) is reported as > 100 µM (inactive). For the same molecule, the GI50 (SN12C) was > 100 µM (inactive), the GI50 (IGROV-1) was > 100 µM (inactive) and the GI50 (SF-295) was > 100 µM (inactive). The GI50 (SNB-75) was > 100 µM (inactive), the GI50 (NCI-H460) was > 100 µM (inactive) and the GI50 (SNB-19) was > 100 µM (inactive). The GI50 (HCT-15) was greater than 100 µM, the GI50 (786-0) was > 100 µM (inactive) and the GI50 (ACHN) was > 100 µM (inactive). For the same molecule, the GI50 (A549) was > 100 µM (inactive), the GI50 (PC-3) was > 100 µM (inactive) and the GI50 (COLO 205) was > 100 µM (inactive). The GI50 (MDA-MB-435) was > 100 µM (inactive), the GI50 (BT-549) was > 100 µM (inactive) and the GI50 (SK-OV-3) was > 100 µM (inactive). For the same molecule, the GI50 (OVCAR-5) was > 100 µM (inactive), the GI50 (T47D) was > 100 µM (inactive) and the GI50 (NCI-H226) was > 100 µM (inactive). The GI50 (RPMI-8226) was > 100 µM (inactive), the GI50 (SF-268) was > 100 µM (inactive) and the GI50 (LOX IMVI) was > 100 µM (inactive). For the same molecule, the GI50 (CAKI-1) was > 100 µM (inactive), the GI50 (KM12) was > 100 µM (inactive) and the GI50 (HCT-116) was > 100 µM (inactive). For the same molecule, the GI50 (OVCAR-4) was > 100 µM (inactive), the GI50 (HT-29) was > 100 µM (inactive) and the GI50 (MCF7) was > 100 µM (inactive). The GI50 (Malme-3M) was > 100 µM (inactive), the GI50 (DU-145) was > 100 µM (inactive) and the GI50 (HOP-62) was > 100 µM (inactive). The GI50 (OVCAR-3) was > 100 µM (inactive), the GI50 (OVCAR-8) was > 100 µM (inactive) and the GI50 (MDA-N) was > 100 µM (inactive). For the same molecule, the GI50 (Hs-578T) was > 100 µM (inactive), the GI50 (UO-31) was > 100 µM (inactive) and the GI50 (HOP-92) was > 100 µM (inactive). For the same molecule, the GI50 (U-251) was > 100 µM (inactive), the GI50 (K562) was > 100 µM (inactive) and the GI50 (MDA-MB-231) was > 100 µM (inactive). For the same molecule, the GI50 (TK-10) was > 100 µM (inactive), the GI50 (SK-MEL-2) was > 100 µM (inactive) and the GI50 (NCI-H23) was > 100 µM (inactive). The GI50 (M14) was > 100 µM (inactive) and the GI50 (A498) was > 100 µM (inactive).

— ChEMBL document CHEMBL1201862, “PubChem BioAssay data set” (2004)
